Common to all, as to type: physicochemical
Series [1] can be described thus: Dynamic vapor sorption (DVS) moisture sorption isotherm. The note with it: for hygroscopicity: result of DVS, in words. On the procedure: DVS moisture sorption isotherms were generated using a Hiden Analytical IGA-sorp moisture sorption analyzer. Samples were run as received without pre-analysis drying. Each sample was equilibrated between about 30 and 120 minutes at each relative humidity (RH) step. Temperature was fixed at about 25° C. and the relative humidity steps (0 to 95% RH) were in 5-10% increments. Sample sizes ranged from 3 to 30 mg. After DVS measurement, XRPD was measured in order to check the solid form. Dynamic Vapor sorption (DVS) moisture sorption isotherms were generated using IGA-sorp moisture sorption analyzer (Hiden Analytical). Sample measurements were run without drying before analyses. XRPD was measured in order to check any changes of the solid form after the moisture sorption/desorption. The measurement condition is shown below: • Time at each RH steps: From 30 to 120 minutes • Relative humidity steps: 5 or 10% steps • Temperature: 25° C.

Series [2] is described as follows: Crystal form stability on humidity, storage and drying (XRPD / FT-Raman). To be noted: for crystal form before and after DVS measurement (XRPD): moisture sorption/desorption. The protocol:
DVS moisture sorption isotherms were generated using a Hiden Analytical IGA-sorp moisture sorption analyzer. Samples were run as received without pre-analysis drying. Each sample was equilibrated between about 30 and 120 minutes at each relative humidity (RH) step. Temperature was fixed at about 25° C. and the relative humidity steps (0 to 95% RH) were in 5-10% increments. Sample sizes ranged from 3 to 30 mg. After DVS measurement, XRPD was measured in order to check the solid form. FT-Raman analyses were performed by using MultiRAM (Bruker Optics). Each suspension or dry powder sample was measured from out of glass vial. The measurement condition is shown below: • Excitation wavelength: 1064 nm • Laser power: 500 mW • Wavenumber: 4 cm^−1 • Sample scan: 128 times X-ray Powder Diffraction (XRPD) spectra were obtained by X'pert Pro MPD (Spectris). X-rays was generated with Cu Kα radiation. The powder samples were put on the reflection free sample plate. The XRPD patterns were analyzed by HighScorePlus. The measurement condition is shown below: • Range angle: From 4 to 30°, to 40° and to 65° (2θ) • Step size: 0.017° • Time per step: 100 s Dynamic Vapor sorption (DVS) moisture sorption isotherms were generated using IGA-sorp moisture sorption analyzer (Hiden Analytical). Sample measurements were run without drying before analyses. XRPD was measured in order to check any changes of the solid form after the moisture sorption/desorption. The measurement condition is shown below: • Time at each RH steps: From 30 to 120 minutes • Relative humidity steps: 5 or 10% steps • Temperature: 25° C.

The nature of series [3]: Temperature controlled XRPD (crystal form on heating). The note with it: heating up to melting. The protocol: Temperature controlled XRPD was measured by the X'pert-MPD with an Anton Paar TCU 100 Temperature Control Unit. Sample was measured from 30° C. to 250° C. or 270° C. with 10° C. increments. Measurement conditions were as follows: range: 4-30°, step: 0.017°, time per step: 100 s.
FT-Raman, XRPD, DSC, TGA, and DVS instruments and techniques are similar to those in Example 3. Temperature controlled XRPD was measured by X'pert-Pro MPD (Spectris) with TCU 100 Temperature Control Unit (Anton Paar). The temperature of the sampling stage was increased step by step as programmed and XRPD patterns of sample were measured at each step. The measurement condition is shown below: • Range angle: From 4 to 30° • Step size: 0.017° • Time per step: 100 s

[4] abbreviates: humidity increased from 0% RH to 95% RH.

Molecules are shown by their SMILES. “Also recorded” adds a separate entry of the source.

`CNC[C@H]1OCCn2nc3ccccc3c21.Cl` [Form HA, (R)-1-(3,4-dihydro-1H-[1,4]oxazino[4,3-b]indazol-1-yl)-N-methylmethanamine hydrochloride]: in series [1] (at 95% RH), the “weight gain (DVS)” value is recorded as “over 100%”. Also, the hygroscopicity entry in series [1] (hydrochloride) was “Highly hygroscopic”. The “crystal form before and after DVS measurement (XRPD)” value in series [2] (hydrochloride) is reported as “transformed to Form HC mixed with an unidentified polymorph”.

On to `CNC[C@H]1OCCn2nc3ccccc3c21.Cl` [Form HB, (R)-1-(3,4-dihydro-1H-[1,4]oxazino[4,3-b]indazol-1-yl)-N-methylmethanamine hydrochloride], for which, in series [2] (observed only in a suspension state, filtrated and dried, hydrochloride), the “crystal form stability on isolation” value is “transformed to Form HC or Form HA; also recorded: Not stable”.

Consider `CNC[C@H]1OCCn2nc3ccccc3c21.O=C(O)/C=C/C(=O)O` [Form FB, (R)-1-(3,4-dihydro-1H-[1,4]oxazino[4,3-b]indazol-1-yl)-N-methylmethanamine fumarate], for which the “weight gain (DVS)” value in series [1] (at over 75% RH) was “about 5%”. Moreover, the “crystal form after storage under humidity” value in series [2] (75% RH overnight (NaCl water suspension)) is reported as “Form FA was observed”. The “crystal form under dry condition or heated” value in series [2] (dry condition or heated, quickly transformed back to hydrous form in the air) is “anhydrous form can be obtained”.

Turning to `CNC[C@H]1OCCn2nc3ccccc3c21.Cl` [Form HD, (R)-1-(3,4-dihydro-1H-[1,4]oxazino[4,3-b]indazol-1-yl)-N-methylmethanamine hydrochloride], in series [2] (at room temperature), the crystal form transformation entry is given as “Transformed to Form C”.

Take `CNC[C@H]1OCCn2nc3ccccc3c21.O=S(=O)(O)c1ccccc1` [Form BA, (R)-1-(3,4-dihydro-1H-[1,4]oxazino[4,3-b]indazol-1-yl)-N-methylmethanamine benzenesulfonate]: the “weight gain (DVS)” value in series [1] (at 90% RH, another batch of Form BA) is “about 1%”; in series [1] (at 90% RH, one batch of Form BA) it was “about 2%”; in series [1] (at 95% RH) it was “about 2%”; in series [1] (at 95% RH, another batch of Form BA) it was “about 2%”; in series [1] (at 95% RH, one batch of Form BA), “about 8%”. Further, the hygroscopicity entry in series [1] (benzenesulfonate) is “less hygroscopicity; also recorded: good hygroscopicity behavior”; in series [1] (listed as besylate, benzenesulfonate), “less hygroscopicity”. For the same compound, the “transformation of crystal form, temperature controlled XRPD” value (from here on “transformation of crystal form”) in series [3] was “not transformed to any other polymorph”.

On to `CNC[C@H]1OCCn2nc3ccccc3c21.O=C(O)/C=C/C(=O)O` [Form FA, (R)-1-(3,4-dihydro-1H-[1,4]oxazino[4,3-b]indazol-1-yl)-N-methylmethanamine fumarate], for which the “transformation of crystal form” value in series [3] is on record as “not transformed to any other polymorph”.

On to `CNC[C@H]1OCCn2nc3ccccc3c21.O=C(O)/C=C/C(=O)O` [fumarate, (R)-1-(3,4-dihydro-1H-[1,4]oxazino[4,3-b]indazol-1-yl)-N-methylmethanamine fumarate], for which the hygroscopicity result in series [1] was “no hygroscopicity”.

Take `CNC[C@H]1OCCn2nc3ccccc3c21.Cc1ccc(S(=O)(=O)O)cc1` [Form TA, (R)-1-(3,4-dihydro-1H-[1,4]oxazino[4,3-b]indazol-1-yl)-N-methylmethanamine tosylate]: the results for the “weight gain (DVS)” value in series [1] (at 95% RH) and in series [1] (setting [4]) were “about 1%” and roughly 1%, respectively. Further, the hygroscopicity result was “less hygroscopicity” in series [1] (listed as Tosylate, tosylate); “less hygroscopicity” in series [1] (listed as tosylate, tosylate); “less hygroscopicity; also recorded: good hygroscopicity behavior; also recorded: non-hygroscopicity” in series [1] (tosylate). For the same compound, in series [2], the “crystal form before and after DVS measurement (XRPD)” value is on record as “no changes of the crystal form”. Also, the “transformation of crystal form” value in series [3] (tosylate) was “not transformed to any other polymorph; also recorded: stable in terms of the crystal form and not transformed to another form until the melting point”.

On to `CNC[C@H]1OCCn2nc3ccccc3c21.Cl` [Form HC, (R)-1-(3,4-dihydro-1H-[1,4]oxazino[4,3-b]indazol-1-yl)-N-methylmethanamine hydrochloride], for which the “weight gain (DVS)” value is 6.5% in series [1] (between 60% RH and 70% RH (Form HC transformed to Form HD)); 9.3% in series [1] (setting [4]). Moreover, in series [1] (hydrochloride), the hygroscopicity entry is listed as “hygroscopic”. Further, the “crystal form after storage at high-humid condition (Raman)” value in series [2] (75% RH for 1 day, saturated sodium chloride water) was “transformed to Form HD”. Besides, the crystal form transformation result in series [2] (humidity level of more than 70% RH) is “Transformed to Form D”. For the same compound, the “crystal form before and after DVS measurement (XRPD)” value in series [2] (hydrochloride) is reported as “basically stable”.

(Values after patent publication US20190375764A1, “SALTS OF A HETEROCYCLIC COMPOUND AND CRYSTALLINE FORMS, PROCESSES FOR PREPARING, THERAPEUTIC USES, AND PHARMACEUTICAL COMPOSITIONS THEREOF” (Sunovion Pharmaceuticals Inc., priority 2018, published 2019).)
